Earlier results as cited in patent publication US20040202615A1, “Melt-processed powder containing particles' repulsion agent, evaporation retardant, and means for benefit to plant cultivation and/or animal husbandry” (priority 2003, published 2004).

Tested on: natural living organisms in water
Settings: active ingredient level 0.04-1.0% in plastic pool and pit liners

CCCCCCCCn1sccc1=O [2-o-octyl-4-isothiazolin-3-one]
slowing of degradation of plastic liners by natural living organisms: significantly slows down their degradation
